Like-named read-outs stand apart in the source and are kept apart here.
Columns and labels:
[1] = system: G6PD::6PGL enzyme of G. lamblia; conditions: cited from earlier work
[2] = Cytotoxicity, XTT viability assay, Caco-2; conditions: human
Experimental: (§1) The cytotoxicity assay was performed to evaluate the effect of the selected compounds on human cells. Colon cells were used because they are cell lines like those present in the microenvironment where G. lamblia colonizes, which is the small intestine of the host. The assay was performed using the human cell lines Caco-2 (ATCC HTB-37) and HT-29 (ATCC […]). Cell viability was determined using the Cell Proliferation Kit II (XTT, St. Louis, MO, EE. UU.). A cell suspension of 2 × 10^3 cells/mL was prepared in Dulbecco’s modified Eagle’s medium (DMEM) supplemented with 10% inactivated fetal bovine serum and an antibiotic (1% penicillin/streptomycin, 5000 U/mL, in a volume of 100 µL). The suspension was added to a 96-well plate. The plates were incubated for 24 h at 37 °C in a 5% CO2 atmosphere. […] The cells were incubated for 48 h at 37 °C in a 5% CO2 atmosphere. Cell viability was determined using the following steps. The medium in each well was replaced with 100 µL of fresh medium, and 50 µL of XTT labeling mix was added per well. The reaction was incubated for four hours at 37 °C and 5% CO2. After incubation, the absorbance of the samples on the plate was measured at 450 nm. Each compound was assayed in triplicate in three independent experiments. CC50 values (μM) were determined using the nonlinear regression function of GraphPad Prism version 8 for Windows.

[3] = system: G. lamblia strain ATCC 30957; assay: Viability of Giardia lamblia trophozoite culture (trypan blue count); format: cell-based; conditions: for Inhibition of growth of G. lamblia parasite culture: concentration not given
Experimental: Viability analysis was performed on G. lamblia strain ATCC 30957 grown in TYI-S-33 medium supplemented with 10% fetal bovine serum (FBS) and an antibiotic. Pre-culture was performed in 16 × 150 mm borosilicate tubes with a medium inoculated with 2 × 10^5 trophozoites and incubated at 37 °C for 48 h. For the recovery of the trophozoites, the vial was incubated in ice for 8 min and centrifuged for 6 min at 2000 rpm. The concentrated trophozoites were suspended in 1 mL of phosphate-buffered saline (PBS), and the number of trophozoites was counted by placing a 1:1 volume ratio of cell culture and trypan blue dye (4 g/L); then, a homogeneous drop of the mixture was taken and placed in the Neubauer chamber, and the total cells were counted.
The curves were plotted for concentrations of 0–50 µM of each compound. The assay was performed by placing 1.5 × 10^5 cells in 1.5 mL microcentrifuge tubes with a supplemented medium and different concentrations of each compound (0–50 µM). The negative control was performed under the same conditions without a compound, and the drugs NTZ and MTZ were used as positive controls. The samples were incubated for 48 h at 37 °C. At the end of the incubation, the cell viability count was performed using the trypan blue technique. The viability calculation was performed following the formula nv/(nv + nm), where nv represents the live cells and nm represents the dead cells; the viability value obtained was expressed as a percentage. The IC50 value of each compound was determined using the IC50 Calculator software (https://www.aatbio.com/tools/ic50-calculator).

HT-29 cells [4] = assay: Cytotoxicity, XTT viability assay, HT-29; conditions: for Selectivity index (CC50/IC50) HT-29: CC50 HT-29 / IC50 trophozoite ATCC strain 30957
Experimental: as §1

[5] = Cytotoxicity, XTT viability assay, HT-29; conditions: human, CC50 HT-29, 48 h, XTT
Experimental: as §1

[6] = system: Giardia lamblia trophozoites (strain ATCC 30957) gene expression; assay: Gene expression in trophozoites by RT-qPCR; format: cell-based; conditions: IC50 of each compound, 48 h
Experimental: To determine the alterations in the parasite’s metabolism and cellular processes induced by the compounds, the expression levels of various genes encoding metabolic, structural, and oxidative stress response proteins were evaluated. G. lamblia strain ATCC 30957 was grown by following previously established culture parameters.
The culture tube was incubated on ice for 15 min and then centrifuged at 2000 rpm for 6 min to concentrate the cell pellet. Cell counting was performed using the trypan blue method. A 500 µL volume of Trizol ® was added, and it was gently homogenized; then, 60 µL of chloroform was added, and it was homogenized for 10 s with a vortex and incubated on ice for 3 min. Afterward, it was centrifuged at 12,000 rpm for 10 min, the aqueous phase was transferred to a new tube, 200 µL of isopropanol was added, and it was incubated for 3 h on ice. The sample was then centrifuged for 10 min at 12,000 rpm, and the supernatant was discarded. A 600 µL volume of ethanol (70%) was added, homogenized, and centrifuged. In the end, the supernatant was removed, and the sample was centrifuged again to dry the excess alcohol. The pellet was dried. Finally, it was resuspended in 25 µL of sterile MilliQ water. The concentration and purity of the extracted RNA were determined using the NanoDrop® Spectrophotometer ND-1000 (NanoDrop Technologies, Wilmington, DE, USA). […] RNA purity and integrity were confirmed using 0.8% (w/v) agarose gels under denaturing conditions.
The synthesis of cDNA was carried out with […] of purified RNA, and 1 U of […] was added (Thermo Thermo Fisher Scientific, Waltham, MA, USA). First-strand cDNA synthesis was carried out using 1 μg of DNase-treated RNA, combined with a 10 mM dNTP mix, oligo(dT)18 primer, and RevertAid reverse transcriptase (Thermo Scientific) in a final reaction volume of 20 μL. The reaction mixture was incubated at 42 °C for 60 min, followed by heat inactivation at 70 °C for 10 min. The synthesized cDNA was stored at −20 °C until further use. The level of purity and concentration of the cDNA were determined using the NanoDrop® Spectrophotometer ND-1000 (NanoDrop Technologies, Wilmington, DE, USA).
Specific oligonucleotides were designed to determine the expression levels of the gene’s phosphofructokinase, pyruvate kinase, glucose-6-phosphate dehydrogenase::6-phosphogluconolactonase, 6-phosphogluconate dehydrogenase, and transketolase. The design was based on gene sequences available in the National Center for Biotechnology Information (NCBI) database, adhering to the following criteria: an oligonucleotide length of 18–20 bp, a melting temperature (Tm) of 61 °C, a GC content of approximately 40%, and an amplicon size between 80 and 200 bp (Table 4). The oligonucleotides were synthesized by the Sequencing and Synthesis Unit of the Institute of Biotechnology, UNAM.
Additionally, previously reported primers that were used for the gene expression analysis of G. lamblia were also obtained (Table 4). These primers target genes encoding surface structural protein, giardin, actin, pyruvate:ferredoxin oxidoreductase, pyruvate phosphate dikinase, NADH oxidase, triose phosphate isomerase, glyceraldehyde-3-phosphate dehydrogenase, and Aldolase.
Amplification was performed using a StepOne™ Real-Time PCR System and the Fast SYBR® Green Master Mix kit (Applied Biosystems, Foster City, CA, USA) under the following conditions: an initial denaturation at 95 °C for 30 s, followed by 40 cycles of 95 °C for 3 s and 60 °C for 30 s. The melt curve analysis was conducted post-amplification by gradually increasing the temperature from 60 °C to 95 °C. […] Normalization was performed using the geometric mean of cycle threshold (Ct) values, and the relative expression levels of the target genes were calculated using the 2^−ΔΔCt method. Each reaction was performed in five replicates for all analyzed genes and strains. Results are presented as mean values ± standard deviation (SD).

Caco-2 and HT-29 cells = assay: Cytotoxicity, XTT viability assay, stated for both cell lines; format: cell-based, human; conditions: 125 µM, 48 h
Experimental: The suspension was added to a 96-well plate. […] Cell viability was determined using the following steps.

[7] = system: G. lamblia strain resistant to nitazoxanide; assay: Giardicidal activity in nitazoxanide-resistant strain (trypan blue count); format: cell-based; conditions: Giardia duodenalis, 48 h, read-out: IC50 G. lamblia (NTZ Resistant)
Experimental: A pre-culture at confluence was used as a starting point, and a concentration–response curve was plotted using an initial compound concentration of 25 μM in a final volume of 1.5 mL of TYI-S-33 medium, followed by serial dilutions of the compound. Each treatment was inoculated with 1.5 × 10^5 trophozoites and incubated for 48 h at 37 °C. At the end of the incubation, the number of trophozoites was determined using the trypan blue assay and by counting in a Neubauer chamber. The viability percentage at each compound concentration was calculated using the negative control as a reference.

HT-29 cells [8] = system: HT-29 cells; parameters: method as in PMID 38893461; conditions: cited from earlier work
Caco-2 cells = system: Caco-2 cells; parameters: method as in PMID 38893461; conditions: cited from earlier work
[9] = system: Giardia lamblia (giardiasis); parameters: method as in PMID 11432808, PMID 34378955, PMID 32122530, PMID 37511272; conditions: cited from earlier work
[10] = ratio of IC50 values, ATCC strain
[11] = Giardia duodenalis, ATCC30957, 48 h, trophozoites ATCC 30957, 48 h, 37 °C, read-out: IC50 G. lamblia
[12] = trophozoites ATCC 30957, 48 h, 37 °C, read-out: IC50 G. lamblia

O=C(Nc1ncc([N+](=O)[O-])s1)c1cccc([N+](=O)[O-])c1 [FLP-8, 3-Nitro-N-(5-nitro-1,3-thiazol-2-yl)benzamide]
Inhibition of the G6PD::6PGL enzyme (in words) [1]: not inhibitors of the enzyme | CC50 at 48 h ([2]; Caco-2): 46 µM | selectivity ratio at 48 h ([2]; Caco-2): 460 | Decrease of parasite viability ([3]; 25 µM): 100% | Inhibition of growth of G. lamblia parasite culture [3]: more than 98% | Relative potency compared with MTZ [3, 10]: 34 times | Relative potency compared with NTZ [3, 10]: 43 times | Selectivity index (CC50/IC50) HT-29 (HT-29 cells [4]): 436 | CC50 (HT-29 cells [4]; read-out: CC50 HT-29, 48 h, XTT): 43.7 µM | CC50 at 48 h [5]: 43.6 µM | GIA (giardin) gene expression, increase vs control [6]: did not show changes in expression | NADHox gene expression, increase vs control [6]: 1.7 times | PFK gene expression vs control [6]: 2.7 fold change | TKT gene expression, decrease vs control [6]: 1.7 times | VSP gene expression, increase vs control [6]: 2.4 times | Decrease of cell viability (Caco-2 and HT-29 cells): ≤ 50% | IC50 [7]: 1.19 µM

CCCCOc1ccc(NC(=O)Nc2ncc([N+](=O)[O-])s2)cc1 [CNZ-8]
Inhibition of the G6PD::6PGL enzyme (in words) [1]: inhibitors of the G6PD enzyme | selectivity ratio at 48 h ([2]; Caco-2): 57 | CC50 at 48 h ([2]; Caco-2, CC50 Caco-2, 48 h, XTT): 633 µM | IC50 [3, 11]: < 15 µM | Inhibition of growth of G. lamblia parasite culture [3]: more than 98% | IC50 [3, 12]: 11.1 µM | Selectivity index (CC50/IC50) HT-29 (HT-29 cells [4]): 56 | CC50 at 48 h ([5]; HT-29 cells): 622 µM | G6PD::6PGL gene expression vs control [6]: 19.4 fold change | GIA (giardin) gene expression, increase vs control [6]: 12.5 times | NADHox gene expression, increase vs control [6]: 4.2 times | PFK gene expression vs control [6]: reduction | PPDK gene expression vs control [6]: 8.2 fold change | TKT gene expression, decrease vs control [6]: 1.4 times | Decrease of cell viability (Caco-2 and HT-29 cells): up to 20% | IC50 [7]: 13.7 µM

CC(=O)Oc1ccccc1C(=O)Nc1ncc([N+](=O)[O-])s1 [NTZ, nitazoxanide]
Inhibition of GlG6PD::6PGL (in words) [1]: catalytic inhibitor | selectivity ratio at 48 h ([2]; Caco-2): 134 | CC50 (HT-29 cells [8]): 634 µM | IC50 ([3]; Giardia duodenalis, ATCC30957, 48 h, read-out: IC50 G. lamblia, trophozoites ATCC 30957, 48 h, 37 °C): 3.4 µM | IC50 ([3]; read-out: IC50 G. lamblia, trophozoites ATCC 30957, 48 h, 37 °C): 4.3 µM | CC50 (Caco-2 cells): 580 µM | Selectivity index (CC50/IC50) HT-29 (HT-29 cells [4]): 147 | 6PGDH gene expression vs control [6]: differential overexpression | G6PD::6PGL gene expression vs control [6]: 48.3 fold change | GAPDH gene expression vs control [6]: 17.2 fold change | GIA (giardin) gene expression, increase vs control [6]: did not show changes in expression | NADHox gene expression, increase vs control [6]: lower | PFK gene expression vs control [6]: reduction | PFOR gene expression vs control [6]: 14 fold change | TKT gene expression, increase vs control [6]: 36.1 times | Efficacy in treatment of giardiasis [9]: 71% | IC50 [7]: 7.29 µM

O=C(Nc1ccc([N+](=O)[O-])cc1)Nc1ncc([N+](=O)[O-])s1 [CNZ-7]
Inhibition of the G6PD::6PGL enzyme (in words) [1]: inhibitors of the G6PD enzyme | CC50 at 48 h ([2]; Caco-2): 640 µM | selectivity ratio at 48 h ([2]; Caco-2): 121 | Inhibition of growth of G. lamblia parasite culture [3]: more than 98% | Selectivity index (CC50/IC50) HT-29 (HT-29 cells [4]): 100 | CC50 at 48 h [5]: 529 µM | ACT (actin) gene expression, increase vs control [6]: 2.1 times | G6PD::6PGL gene expression vs control [6]: 11.4 fold change | GIA (giardin) gene expression, increase vs control [6]: 2.6 times | NADHox gene expression, increase vs control [6]: 1.7 times | PFK gene expression vs control [6]: reduction | PFOR gene expression vs control [6]: 7.4 fold change | PPDK gene expression vs control [6]: 15.8 fold change | TKT gene expression, increase vs control [6]: 1.9 times | Decrease of cell viability (Caco-2 and HT-29 cells): up to 20% | IC50 [7]: 2.5 µM

Cc1ncc([N+](=O)[O-])n1CCO [MTZ, metronidazole, reference compound]
selectivity ratio at 48 h ([2]; Caco-2): 160 | CC50 (HT-29 cells [8]): 550 µM | IC50 [3, 11]: 4.3 µM | IC50 [3, 12]: 3.4 µM | CC50 (Caco-2 cells): 545 µM | Selectivity index (CC50/IC50) HT-29 (HT-29 cells [4]): 161
